Assay results taken from patent publication US20260248828A1, “Pyropheophorbide Analogues for Therapy and Diagnosis” (RMW Cho Group Limited, priority 2023, published 2026).
Where two headings read alike, the source gives them in different places.

How the values were obtained:
[1] = system: SKOV3 ovarian cancer cells
[2] = system: SKOV3 ovarian cancer cells; assay: Phototoxicity in SKOV3 cells after 660 nm light activation (AlamarBlue viability); type: cell-based, Human; conditions: 24 h uptake, 660 nm laser or LED 50 mW/cm^2 for 5 mins (15 J/cm^2), viability 24 h after activation
Protocol: Samples were stored at 4° C. protected from light.
All data are shown as mean±SD (where appropriate).
To test for phototoxicity, cells incubated with pyropheophorbide a analogues (0-20 μM in DMSO) had culture media replaced after 24 hours (as above) and were then exposed to a 660 nm laser (Invion) or light-emitting diode (LED) panel (Invion) with optical power density at 50 mW/cm^2 for 5 mins (total 15 J/cm^2). Laser and LED exposure induce an equivalent response in relation to phototoxicity. Following activation, cells were cultured for a further 24 hours. Media was then replaced with fresh media containing AlamarBlue, and % viable cells remaining assessed as above. Controls included cells treated with pyropheophorbide a analogues but not activated by laser light; cells without pyropheophorbide a analogue treatment but with laser light; and untreated controls. All measurements were made in quadruplicate.
To evaluate the therapeutic potential of pyropheophorbide a analogues, the therapeutic index (TI) was calculated. TI provides a quantitative measurement to describe relative drug safety, by comparing the drug concentration required for desirable effects versus the concentration resulting in undesirable off-target toxicity. TI was calculated using phototoxicity IC90 vs dark toxicity IC10.

[3] = system: SKOV3 ovarian cancer cells; assay: Inherent cytotoxicity (dark toxicity) in SKOV3 cells without light (AlamarBlue viability); conditions: 24 h incubation, no light activation
Protocol: Photosensitizers (e.g. pyropheophorbide a analogue, chlorin e4 disodium (provided by Advanced Molecular Technologies, Scoresby) or Talaporfin sodium (purchased from Focus Bioscience cat #HY-16477-5MG)) were resuspended in 100% dimethylsulfoxide (DMSO) at a concentration of 5.5 mM. Samples were stored at 4° C. protected from light.
For in vitro experiments, photosensitizers (stock solution 5.5 mM in 100% DMSO) were diluted 1:100 in concentrated excipient solution (final 55 M photosensitizer in 10% w/v Kollidon-12, 42.4% w/v polysorbate 80, 0.6% w/v citric acid anhydrous, 40% w/v ethanol, 1.0% DMSO). Serial dilutions were prepared in cell culture media (Dulbecco's Modified Eagle Medium/Nutrient Mixture F-12 (DMEM/F-12)) supplemented with 10% v/v Fetal Bovine Serum, 100 U/mL penicillin, 100 μg/mL streptomycin and the same excipient solution at a constant 1:55 dilution.
Human ovarian cancer cell line SKOV3 (ATCC #HTB-77) was maintained in Dulbecco's Modified Eagle Medium/Nutrient Mixture F-12 (DMEM/F-12), supplemented with 10% v/v Fetal Bovine Serum, 100 U/mL penicillin and 100 μg/mL streptomycin. Monolayer cultures were grown in a humidified incubator at 37° C. with 5% CO2. Once cells had reached ~80% confluence, spent media was replaced with media containing photosensitizer at the required concentration and cells were incubated for the desired period of time to allow photosensitizer uptake.
Spectral absorbance and viability measurements were normalized in the range 0-100%, with a minimum of 0 and a maximum value determined from the dataset. Dose response was determined using a sigmoidal four-point non-linear regression with variable slope, and IC10 or IC90 calculated for each compound.
SKOV3 cells were seeded in 96-well black wall plates (Greiner #655090) at a cell density of 5000 cells in 100 μl culture medium per well. On reaching ~60% confluence, media was aspirated and replaced with fresh media containing the relevant pyropheophorbide a analogue from 0-100 μM in DMSO. Cells were incubated for a further 24 hours, allowing uptake of pyropheophorbide a analogues.
To test for inherent cytotoxicity (i.e. “dark toxicity”) of the pyropheophorbide a analogues, the culture media was replaced after 24 hours with fresh media containing 10% (v/v) AlamarBlue Cell Viability Reagent (ThermoFisher) and cells incubated at 37° C. for 6 hours. Untreated cells were used as a control. Fluorescence (Ex 555 nm/Em 596 nm) was measured using a Cytation 3 Cell Imaging Multi-Mode Reader (Biotek) or a CLARIOstar Plus Microplate Readear (BMG Labtech), and cytotoxicity assessed according to the % viable cells remaining. All measurements were made in quadruplicate.
The phototoxicity and inherent cytotoxicity (i.e. “dark toxicity”) of pyropheophorbide a analogues were assessed as previously using SKOV3 ovarian cancer cells. For comparative purposes, pyropheophorbide a analogues were compared against chlorin e4 disodium and Talaporfin sodium, a clinically approved photosensitizer used in the photodynamic treatment of lung cancers. Phototoxicity IC90 values and dark toxicity IC10 values were calculated using a log[inhibitor]-vs normalized response dose curve with variable slope, using the formula Y=100/(1+(IC90/X)^HillSlope (phototoxicity IC90)) or Y=100/(1+(IC10/X)^HillSlope (dark toxicity IC10)).

[4] = Homo sapiens, SK-OV-3, light or radiation study

C=Cc1c(C)c2cc3nc(c(C)c4[nH]c(cc5nc(cc1[nH]2)C(C)=C5CC)c(C)c4C(=O)O)[C@@H](CCC(=O)O)[C@@H]3C [Chlorin e4 disodium, chlorin e4 disodium, reference compound]
Dark toxicity μM (IC10) [1]: 40.23 µM | IC90 [2]: 21.3 µM

CCC1=C(C)c2cc3[nH]c(cc4nc(c5c6[nH]c(cc1n2)c(C)c6C(=O)C5)[C@@H](CCC(=O)OC)[C@@H]4C)c(C)c3CO [Comparative Compound 1, pyropheophorbide a 9-hydroxymethyl methyl ester, reference compound]
Dark toxicity μM (IC10) ([1]; human, 24 h): 15.500 µM | IC90 [2, 4]: 0.458 µM

CCC1=C(C)c2cc3[nH]c(cc4nc(c5c6[nH]c(cc1n2)c(C)c6C(=O)C5)[C@@H](CCC(=O)OC)[C@@H]4C)c(C)c3COC(=O)NCCC[P+](c1ccccc1)(c1ccccc1)c1ccccc1 [Compound 1, pyropheophorbide a methyl ester 9-(N-(3-triphenylphosphoniumpropyl)bromide)carbamate]
Dark toxicity μM (IC10) [3]: 3.088 µM | IC90 [2, 4]: 0.038 µM

CCC1=C(C)c2cc3[nH]c(cc4nc(c5c6[nH]c(cc1n2)c(C)c6C(=O)C5)[C@@H](CCC(=O)OC)[C@@H]4C)c(C)c3COC(=O)CCCC[P+](c1ccccc1)(c1ccccc1)c1ccccc1 [Compound 2, pyropheophorbide a methyl ester 9-(oxopentyl)triphenylphosphonium bromide]
Dark toxicity μM (IC10) ([1]; human, 24 h): 0.415 µM | IC90 [2, 4]: 0.002 µM

CCC1=C(C)c2cc3[nH]c(cc4nc(c5c6[nH]c(cc1n2)c(C)c6C(=O)C5)[C@@H](CCC(=O)OC)[C@@H]4C)c(C)c3CN(C)C(=O)CCCC[P+](c1ccccc1)(c1ccccc1)c1ccccc1 [Compound 3, pyropheophorbide a 9-N-(methyl-5-triphenylphosphonium bromidepentanamide) methyl ester]
Dark toxicity μM (IC10) ([1]; human, 24 h): 24.00 µM | IC90 [2, 4]: 0.012 µM

CCC1=C(C)c2cc3[nH]c(cc4nc(c5c6[nH]c(cc1n2)c(C)c6C(=O)C5)[C@@H](CCC(=O)OC)[C@@H]4C)c(C)c3CNCCC[P+](c1ccccc1)(c1ccccc1)c1ccccc1 [Compound 4, pyropheophorbide a 9-(N-3-triphenylphosphoniumpropyl bromide)aminomethyl methyl ester]
Dark toxicity μM (IC10) [3]: 50.90 µM | IC90 [2, 4]: 0.048 µM

CCOC(=O)N(CCC[P+](c1ccccc1)(c1ccccc1)c1ccccc1)Cc1c(C)c2cc3nc(c4c5[nH]c(cc6nc(cc1[nH]2)C(C)=C6CC)c(C)c5C(=O)C4)[C@@H](CCC(=O)OC)[C@@H]3C [Compound 5, pyropheophorbide a 9-(N-3-triphenylphosphoniumpropyl bromide ethylcarbamate)aminomethyl methyl ester]
Dark toxicity μM (IC10) [3]: 48.97 µM | IC90 [2, 4]: 0.006 µM

C=Cc1c(C)c2cc3nc(c(CC(=O)N[C@@H](CC(=O)O)C(=O)O)c4[nH]c(cc5nc(cc1[nH]2)C(C)=C5CC)c(C)c4C(=O)O)[C@@H](CCC(=O)O)[C@@H]3C [Talaporfin sodium]
Dark toxicity μM (IC10) ([1]; human, 24 h): 11.10 µM
